Data: patent publication US20100267561A1, “HERBICIDAL PYRIDAZINONE DERIVATIVES” (priority 2007, published 2010)

Experiments:
Assay in all cases: Test E pre-/postemergence plant response
Assay type in all cases: in vivo
[1] = tested on: Italian ryegrass (Lolium multiflorum); settings: scale 0 to 100
Source text: (§1) Seeds of plant species selected from bermudagrass (Cynodon dactylon), Surinam grass (Brachiaria decumbens), large crabgrass (Digitaria sanguinalis), green foxtail (Setaria viridis), goosegrass (Eleusine indica), johnsongrass (Sorghum halepense), kochia (Kochia scoparia), pitted morningglory (Ipomoea lacunosa), purple nutsedge (Cyperus rotundus), common ragweed (Ambrosia elation), black mustard (Brassica nigra), guineagrass (Panicum maximum), dallisgrass (Paspalum dilatatum), barnyardgrass (Echinochloa crus-galli), southern (S.) sandbur (Cenchrus echinatus), common sowthistle (Sonchus oleraceous), prickly sida (Sida spinosa), Italian ryegrass (Lolium multiflorum), common purslane (Portulaca oleracea), broadleaf signalgrass (Brachiaria platyphylla), common groundsel (Senecio vulgaris), common chickweed (Stellaria media), Virginia (V.) dayflower (Commelina virginica), tropical (T.) spiderwort (Commelina benghalensis), annual bluegrass (Poa annua), naked crabgrass (Digitaria nuda), itchgrass (Rottboellia cochinchinensis), quackgrass (Elytrigia repens), Canada horseweed (Conyza canadensis), field bindweed (Convolvulus arvensis), spanishneedles (Bidens bipinnata), common mallow (Malva sylvestris) and Russian thistle (Salsola kali) were planted and treated preemergence with test chemicals formulated in a non-phytotoxic solvent mixture which included a surfactant. At the same time, plants selected from these weed species were treated with postemergence applications of some of the test chemicals formulated in the same manner. Plants ranged in height from 2 to 18 cm (1- to 4-leaf stage) for postemergence treatments.
(§2) Treated plants and controls were maintained in a greenhouse for 14 to 21 days, after which time all species were compared to controls and visually evaluated. Plant response ratings, summarized in Table E, are based on a scale of 0 to 100 where 0 is no effect and 100 is complete control. A dash (-) response means no test result.

[2] = tested on: guineagrass (Panicum maximum); settings: scale 0 to 100
Source text: as §1, §2

[3] = tested on: large crabgrass (Digitaria sanguinalis); settings: scale 0 to 100
Source text: as §1, §2

[4] = tested on: purple nutsedge (Cyperus rotundus); settings: scale 0 to 100
Source text: as §1, §2

[5] = tested on: common purslane (Portulaca oleracea); settings: scale 0 to 100
Source text: as §1, §2

[6] = tested on: johnsongrass (Sorghum halepense); settings: scale 0 to 100
Source text: as §1, §2

[7] = tested on: southern (S.) sandbur (Cenchrus echinatus); settings: scale 0 to 100
Source text: as §1, §2

[8] = tested on: barnyardgrass (Echinochloa crus-galli); settings: scale 0 to 100
Source text: as §1, §2

[9] = tested on: pitted morningglory (Ipomoea lacunosa); settings: scale 0 to 100
Source text: as §1, §2

[10] = tested on: black mustard (Brassica nigra); settings: scale 0 to 100
Source text: as §1, §2

[11] = tested on: annual bluegrass (Poa annua); settings: scale 0 to 100
Source text: as §1, §2

[12] = tested on: common groundsel (Senecio vulgaris); settings: Postemergence, scale 0 to 100
Source text: as §1, §2

[13] = tested on: bermudagrass (Cynodon dactylon); settings: scale 0 to 100
Source text: as §1, §2

[14] = tested on: naked crabgrass (Digitaria nuda); settings: scale 0 to 100
Source text: as §1, §2

[15] = tested on: goosegrass (Eleusine indica); settings: scale 0 to 100
Source text: as §1, §2

[16] = tested on: dallisgrass (Paspalum dilatatum); settings: scale 0 to 100
Source text: as §1, §2

[17] = tested on: broadleaf signalgrass (Brachiaria platyphylla); settings: scale 0 to 100
Source text: as §1, §2

## CCc1cc(-c2ccc(Cl)cc2)nn1-c1c(O)cnn(C)c1=O [Compound 21]
[1]; 16 g ai/ha, Preemergence
  Plant response rating, Ryegrass, Italian: 100
[1]; 31 g ai/ha, Preemergence
  Plant response rating, Ryegrass, Italian: 100
[1]; 62 g ai/ha, Preemergence
  Plant response rating, Ryegrass, Italian: 100
[1]; Postemergence, 8 g ai/ha
  Plant response rating, Ryegrass, Italian: 80
[1]; Postemergence, 16 g ai/ha
  Plant response rating, Ryegrass, Italian: 98
[1]; Postemergence, 31 g ai/ha
  Plant response rating, Ryegrass, Italian: 100
[1]; Postemergence, 62 g ai/ha
  Plant response rating, Ryegrass, Italian: 100
[2]; 16 g ai/ha, Preemergence
  Plant response rating, Guineagrass: 100
[2]; 31 g ai/ha, Preemergence
  Plant response rating, Guineagrass: 100
[2]; 62 g ai/ha, Preemergence
  Plant response rating, Guineagrass: 100
[2]; Postemergence, 8 g ai/ha
  Plant response rating, Guineagrass: 95
[2]; Postemergence, 16 g ai/ha
  Plant response rating, Guineagrass: 98
[2]; Postemergence, 31 g ai/ha
  Plant response rating, Guineagrass: 100
[2]; Postemergence, 62 g ai/ha
  Plant response rating, Guineagrass: 100
[3]; 8 g ai/ha, Preemergence
  Plant response rating, Crabgrass, Large: 65
[3]; 16 g ai/ha, Preemergence
  Plant response rating, Crabgrass, Large: 100
[3]; 31 g ai/ha, Preemergence
  Plant response rating, Crabgrass, Large: 100
[3]; 62 g ai/ha, Preemergence
  Plant response rating, Crabgrass, Large: 100
[3]; Postemergence, 8 g ai/ha
  Plant response rating, Crabgrass, Large: 80
[3]; Postemergence, 16 g ai/ha
  Plant response rating, Crabgrass, Large: 90
[3]; Postemergence, 31 g ai/ha
  Plant response rating, Crabgrass, Large: 95
[3]; Postemergence, 62 g ai/ha
  Plant response rating, Crabgrass, Large: 98
[4]; 16 g ai/ha, Preemergence
  Plant response rating, Nutsedge, Purple: 0
[4]; 31 g ai/ha, Preemergence
  Plant response rating, Nutsedge, Purple: 0
[4]; 62 g ai/ha, Preemergence
  Plant response rating, Nutsedge, Purple: 0
[4]; Postemergence, 8 g ai/ha
  Plant response rating, Nutsedge, Purple: 0
[4]; Postemergence, 16 g ai/ha
  Plant response rating, Nutsedge, Purple: 0
[4]; Postemergence, 31 g ai/ha
  Plant response rating, Nutsedge, Purple: 0
[4]; Postemergence, 62 g ai/ha
  Plant response rating, Nutsedge, Purple: 0
[5]; 16 g ai/ha, Preemergence
  Plant response rating, Purslane: 0
[5]; 31 g ai/ha, Preemergence
  Plant response rating, Purslane: 0
[5]; 62 g ai/ha, Preemergence
  Plant response rating, Purslane: 0
[5]; Postemergence, 8 g ai/ha
  Plant response rating, Purslane: 0
[5]; Postemergence, 16 g ai/ha
  Plant response rating, Purslane: 0
[5]; Postemergence, 31 g ai/ha
  Plant response rating, Purslane: 0
[5]; Postemergence, 62 g ai/ha
  Plant response rating, Purslane: 0
[6]; 16 g ai/ha, Preemergence
  Plant response rating, Johnsongrass: 75
[6]; 31 g ai/ha, Preemergence
  Plant response rating, Johnsongrass: 90
[6]; 62 g ai/ha, Preemergence
  Plant response rating, Johnsongrass: 95
[6]; Postemergence, 8 g ai/ha
  Plant response rating, Johnsongrass: 50
[6]; Postemergence, 16 g ai/ha
  Plant response rating, Johnsongrass: 65
[6]; Postemergence, 31 g ai/ha
  Plant response rating, Johnsongrass: 85
[6]; Postemergence, 62 g ai/ha
  Plant response rating, Johnsongrass: 100
[7]; 16 g ai/ha, Preemergence
  Plant response rating, Sandbur, S.: 98
[7]; 31 g ai/ha, Preemergence
  Plant response rating, Sandbur, S.: 100
[7]; 62 g ai/ha, Preemergence
  Plant response rating, Sandbur, S.: 100
[7]; Postemergence, 8 g ai/ha
  Plant response rating, Sandbur, S.: 80
[7]; Postemergence, 16 g ai/ha
  Plant response rating, Sandbur, S.: 80
[7]; Postemergence, 31 g ai/ha
  Plant response rating, Sandbur, S.: 95
[7]; Postemergence, 62 g ai/ha
  Plant response rating, Sandbur, S.: 100
[8]; 8 g ai/ha, Preemergence
  Plant response rating, Barnyardgrass: 95
[8]; 16 g ai/ha, Preemergence
  Plant response rating, Barnyardgrass: 100
[8]; 31 g ai/ha, Preemergence
  Plant response rating, Barnyardgrass: 100
[8]; 62 g ai/ha, Preemergence
  Plant response rating, Barnyardgrass: 100
[8]; Postemergence, 8 g ai/ha
  Plant response rating, Barnyardgrass: 100
[8]; Postemergence, 16 g ai/ha
  Plant response rating, Barnyardgrass: 100
[8]; Postemergence, 31 g ai/ha
  Plant response rating, Barnyardgrass: 100
[8]; Postemergence, 62 g ai/ha
  Plant response rating, Barnyardgrass: 100
[9]; 16 g ai/ha, Preemergence
  Plant response rating, Morningglory: 0
[9]; 31 g ai/ha, Preemergence
  Plant response rating, Morningglory: 0
[9]; 62 g ai/ha, Preemergence
  Plant response rating, Morningglory: 0
[9]; Postemergence, 8 g ai/ha
  Plant response rating, Morningglory: 0
[9]; Postemergence, 16 g ai/ha
  Plant response rating, Morningglory: 0
[9]; Postemergence, 31 g ai/ha
  Plant response rating, Morningglory: 0
[9]; Postemergence, 62 g ai/ha
  Plant response rating, Morningglory: 0
[10]; 8 g ai/ha, Preemergence
  Plant response rating, Mustard, Black: 0
[10]; 16 g ai/ha, Preemergence
  Plant response rating, Mustard, Black: 0
[10]; 31 g ai/ha, Preemergence
  Plant response rating, Mustard, Black: 0
[10]; 62 g ai/ha, Preemergence
  Plant response rating, Mustard, Black: 0
[10]; Postemergence, 8 g ai/ha
  Plant response rating, Mustard, Black: 0
[10]; Postemergence, 16 g ai/ha
  Plant response rating, Mustard, Black: 0
[10]; Postemergence, 31 g ai/ha
  Plant response rating, Mustard, Black: 0
[10]; Postemergence, 62 g ai/ha
  Plant response rating, Mustard, Black: 0
[11]; 8 g ai/ha, Preemergence
  Plant response rating, Bluegrass: 0
[11]; 16 g ai/ha, Preemergence
  Plant response rating, Bluegrass: 0
[11]; 31 g ai/ha, Preemergence
  Plant response rating, Bluegrass: 0
[11]; 62 g ai/ha, Preemergence
  Plant response rating, Bluegrass: 0
[11]; Postemergence, 8 g ai/ha
  Plant response rating, Bluegrass: 0
[11]; Postemergence, 16 g ai/ha
  Plant response rating, Bluegrass: 0
[11]; Postemergence, 31 g ai/ha
  Plant response rating, Bluegrass: 10
[11]; Postemergence, 62 g ai/ha
  Plant response rating, Bluegrass: 15
[12]; 8 g ai/ha
  Plant response rating, Groundsel: 0
[12]; 62 g ai/ha
  Plant response rating, Groundsel: 0
[13]; 8 g ai/ha, Preemergence
  Plant response rating, Bermudagrass: 40
[13]; 16 g ai/ha, Preemergence
  Plant response rating, Bermudagrass: 90
[13]; 31 g ai/ha, Preemergence
  Plant response rating, Bermudagrass: 95
[13]; 62 g ai/ha, Preemergence
  Plant response rating, Bermudagrass: 100
[13]; Postemergence, 8 g ai/ha
  Plant response rating, Bermudagrass: 40
[13]; Postemergence, 16 g ai/ha
  Plant response rating, Bermudagrass: 50
[13]; Postemergence, 31 g ai/ha
  Plant response rating, Bermudagrass: 65
[13]; Postemergence, 62 g ai/ha
  Plant response rating, Bermudagrass: 75
[14]; 16 g ai/ha, Preemergence
  Plant response rating, Crabgrass, Naked: 95
[14]; 31 g ai/ha, Preemergence
  Plant response rating, Crabgrass, Naked: 100
[14]; 62 g ai/ha, Preemergence
  Plant response rating, Crabgrass, Naked: 100
[14]; Postemergence, 8 g ai/ha
  Plant response rating, Crabgrass, Naked: 80
[14]; Postemergence, 16 g ai/ha
  Plant response rating, Crabgrass, Naked: 90
[14]; Postemergence, 31 g ai/ha
  Plant response rating, Crabgrass, Naked: 98
[14]; Postemergence, 62 g ai/ha
  Plant response rating, Crabgrass, Naked: 100
[15]; 8 g ai/ha, Preemergence
  Plant response rating, Goosegrass: 95
[15]; 16 g ai/ha, Preemergence
  Plant response rating, Goosegrass: 100
[15]; 31 g ai/ha, Preemergence
  Plant response rating, Goosegrass: 100
[15]; 62 g ai/ha, Preemergence
  Plant response rating, Goosegrass: 100
[15]; Postemergence, 8 g ai/ha
  Plant response rating, Goosegrass: 75
[15]; Postemergence, 16 g ai/ha
  Plant response rating, Goosegrass: 80
[15]; Postemergence, 31 g ai/ha
  Plant response rating, Goosegrass: 90
[15]; Postemergence, 62 g ai/ha
  Plant response rating, Goosegrass: 98
[16]; 8 g ai/ha, Preemergence
  Plant response rating, Dallisgrass: 80
[16]; 16 g ai/ha, Preemergence
  Plant response rating, Dallisgrass: 100
[16]; 31 g ai/ha, Preemergence
  Plant response rating, Dallisgrass: 100
[16]; 62 g ai/ha, Preemergence
  Plant response rating, Dallisgrass: 100
[16]; Postemergence, 8 g ai/ha
  Plant response rating, Dallisgrass: 75
[16]; Postemergence, 16 g ai/ha
  Plant response rating, Dallisgrass: 80
[16]; Postemergence, 31 g ai/ha
  Plant response rating, Dallisgrass: 85
[16]; Postemergence, 62 g ai/ha
  Plant response rating, Dallisgrass: 98
[17]; 16 g ai/ha, Preemergence
  Plant response rating, Signalgrass: 98
[17]; 31 g ai/ha, Preemergence
  Plant response rating, Signalgrass: 100
[17]; 62 g ai/ha, Preemergence
  Plant response rating, Signalgrass: 100
[17]; Postemergence, 8 g ai/ha
  Plant response rating, Signalgrass: 80
[17]; Postemergence, 16 g ai/ha
  Plant response rating, Signalgrass: 90
[17]; Postemergence, 31 g ai/ha
  Plant response rating, Signalgrass: 100
[17]; Postemergence, 62 g ai/ha
  Plant response rating, Signalgrass: 100
